Test results published in patent publication US20160264593A1 (priority 2013, published 2016).

Assay: in vivo
Parameters: species or system SD rats
Details: rat, 1.4 mg/kg; for Kp: AUC(0-t) ratio of liver over plasma
Method: 113 was dissolved in 4% NaHCO3 in saline for IV administration. The detailed procedure of dosing solution preparation was presented in Appendix I.
15 animals were placed on the study. The animals in IV arm were free access to food and water. For PO dose group, the animals were fasted overnight prior to dosing and the food was resumed 4 hours postdose.
One extra animal was used for blank liver, brain and plasma generation (5 mL per animal). The resulting blank liver, brain and plasma were then applied to the development of bioanalytical method and sample bioanalysis for the entire study.
The IV injection was conducted via foot dorsal vein. PO via oral gavage.
Blood collection: The animal is restrained manually. Approximately 200 μL of blood/time point is collected into sodium heparin tube via cardiac puncture for terminal bleeding (anesthetized under carbon dioxide). Blood sample will be put on ice and centrifuged to obtain plasma sample (2000 g, 5 min under 4° C.) within 10 minutes.
Liver collection: The animal will be euthanized with carbon dioxide inhalation. Open abdominal cavity with scissor to expose internal organs. Hold the carcass in an upright position and allow the organs to fall forward. Cut the connective tissues and remove the organs. Then the organs are rinsed with cold saline, dried on filtrate paper, placed into a screw-top tube and weighed, snap frozen by placing into dry-ice immediately.
Brain collection: Make a mid-line incision in the animals scalp and retract the skin. Using small bone cutters and rongeurs, remove the skull overlying the brain. Remove the brain using a spatula and rinse with cold saline, dried on filtrate paper, placed into a screw-top tube and weighed, snap frozen by placing into dry-ice immediately. Brain tissue will be homogenized for 2 min with 3 volumes (v/w) of homogenizing solution (PBS pH 7.4) right before analysis. Plasma, brain and liver samples were stored at approximately −80° C. until analysis. The backup samples will be discarded after three weeks after in-life completion unless requested. The unused dosing solutions will be discarded within three weeks after completion of the study.
The PK parameters were determined by non-compartmental model of non-compartmental analysis tool, Pharsight Phoenix WinNonlin® 6.2 software.
Concentration data within 80%-120% of LLOQ was considered within normal instrumental variation and presented in the results.
Time points were automatic selected by “best fit” model for terminal half life estimation as the first option. Manual selection was applied when “best fit” could not well define the terminal phase.

[1] = male, Sprague-Dawley (SD), iv, 6 hr
[2] = male, SD, iv, Liver-plasma concentration ratio of 113
[3] = male, SD, iv, liver concentration of 113
[4] = male, SD, iv, plasma concentration of 113
[5] = male, SD, po, plasma concentration of 113
[6] = male, Sprague-Dawley, iv, Brain-plasma concentration ratio of 113
[7] = male, Sprague-Dawley, iv, brain concentration of 113

Compound: CN1CCN(C(=O)C2C3CCC(O3)C2C(=O)O)CC1 (stereo not drawn) [Compound 100, 3-(4-methylpiperazine-1-carbonyl)-7-oxa-bicyclo[2,2,1]-heptane-2-carboxylic acid]
- AUC(0-inf) (male, Sprague-Dawley (SD), iv): 2830 ng·h/mL
- AUC(0-t) (male, Sprague-Dawley (SD), iv): 2800 ng·h/mL
- AUC(0-t) of 100 (male, Sprague-Dawley (SD), iv): 703 ng·h/mL
- AUC(0-∞) of 100 (male, Sprague-Dawley (SD), iv): 707 ng·h/mL
- Tmax (male, Sprague-Dawley (SD), iv): 15 min
- Tmax of 100 (male, Sprague-Dawley (SD), iv): 15 min
- Liver-plasma concentration ratio of 100 [1]: 7.32
- plasma concentration of 100 [1]: 3.25 ng/mL
- AUC(0-last) of 100 in plasma (male, Sprague-Dawley, iv): 703 ng·h/mL
- AUC(0-t) ratio of liver over plasma, 100 (male, Sprague-Dawley, iv): 399
- AUC(0-∞) of 100 in plasma (male, Sprague-Dawley, iv): 707 ng·h/mL
- Cmax of 100 in liver (male, Sprague-Dawley, iv): 1895 ng/g
- Cmax of 100 in plasma (male, Sprague-Dawley, iv): 554 ng/mL
- Tmax of 100 in liver (male, Sprague-Dawley, iv): 15 min
- Tmax of 100 in plasma (male, Sprague-Dawley, iv): 15 min
- plasma concentration of 100 (male, Sprague-Dawley, iv, 6 h): 3.25 ng/mL
- AUC(0-last) of 100 in liver (iv): 2804 ng·h/g
- AUC(0-∞) of 100 in liver (iv): 2834 ng·h/g
- AUClast-liver/AUClast-plasma of 100 (iv): 399

Compound: CN1CCN(C(=O)C2C(C(=O)OCC(Cl)(Cl)Cl)[C@H]3CC[C@@H]2O3)CC1 (stereo partly drawn) [Compound 113]
- Liver-plasma concentration ratio of 113 (male, SD, iv, 1 h): 1.18
- AUC(0-t) (male, SD, iv, AUClast of 113 in plasma): 155 ng·h/mL
- Kp at 0.25 h [2]: 0.321
- Kp at 1 h [2]: 1.35
- concentration at 0.25 h [3]: 55.5 ng/g
- concentration at 1 h [3]: 14.6 ng/g
- concentration at 0.25 h [4]: 173 ng/mL
- concentration at 1 h [4]: 10.8 ng/mL
- plasma concentration of 113 (male, SD, po, 2 h): 2.15 ng/mL
- concentration at 0.25 h [5]: 18.3 ng/mL
- concentration at 1 h [5]: 4.61 ng/mL
- concentration at 2 h [5]: 2.15 ng/mL
- Cmax of 113 (male, Sprague-Dawley (SD), iv): 90.4 ng/mL
- Tmax (male, Sprague-Dawley (SD), iv): 15 min
- Cmax (male, Sprague-Dawley (SD), iv, Cmax of 113): 46.2 ng/mL
- F of 113 (male, Sprague-Dawley (SD), po): 10.1%
- Tmax (male, Sprague-Dawley (SD), po): 15 min
- AUC(0-t) (male, Sprague-Dawley (SD), po, AUC(0-t) of 113): 15.7 ng·h/mL
- Cmax (male, Sprague-Dawley (SD), po, Cmax of 113): 17.7 ng/mL
- bioavailability (male, Sprague-Dawley): 10.1%
- Tmax (male, Sprague-Dawley, iv): 15 min
- Kp (male, Sprague-Dawley, iv, 113): 18.1
- Kp (male, Sprague-Dawley, iv, 113 (printed in the brain paragraph)): 30.6
- Kp at 0.25 h [6]: 0.498
- Kp at 1 h [6]: 0.537
- Cmax (male, Sprague-Dawley, iv, Cmax of 113 in brain): 90.4 ng/g
- Cmax (male, Sprague-Dawley, iv, Cmax of 113 in liver): 46.2 ng/g
- Kp at 1 h (male, Sprague-Dawley, iv, Liver-plasma concentration ratio of 113): 1.27
- concentration at 0.25 h [7]: 86.2 ng/g
- concentration at 1 h [7]: 5.8 ng/g
- Tmax (male, Sprague-Dawley, po): 15 min
- AUC(0-t) (male, Sprague-Dawley, po, AUClast of 113 in plasma): 15.7 ng·h/mL
- Cmax (male, Sprague-Dawley, po, Cmax of 113 in plasma): 17.7 ng/mL
- AUC(0-last) of 113 in brain (iv): 47.5 ng·h/g
- AUC(0-last) of 113 in liver (iv): 28.1 ng·h/g
